Tests used:
[1] = test system: biochemical bone activity markers; test: Phase 3 TIW study, biochemical bone activity markers (Table C); type: in vivo, human; details: CKD Stage 3 and 4, TIW treated subjects (Table C)
Text: Serum bone-specific alkaline phosphate and serum osteocalcin are considered more sensitive bone markers to evaluate degree of bone remodeling than urinary bone marker. […] These subjects received treatment with the oral formulations of the present invention or a placebo. The bone markers examined in these subjects were serum osteocalcin, serum bone-specific alkaline phosphatase, urinary pyridinoline, and deoxypyridinoline. If more than 1 biochemical bone activity marker measurement existed for a subject on a particular day, the higher measurement was considered to be that subject's biochemical bone activity marker measurement for that day. […] The Final Visit measurement was defined as the last biochemical bone activity marker measurement following the first dose of study drug.
The Week 11 Visit measurement was defined as the biochemical bone activity marker measurement on the day closest to the Week 11 scheduled visit, for which the possible measurements to choose from were those collected within 64 and 77 days following the first dose of study drug.
Changes from baseline to Week 11 Visit and to Final Visit in biochemical bone activity markers were compared between oral paricalcitol and placebo using an ANOVA with treatment as the factor on the combined Phase 3 all treated subject population (Table F). Also, the changes from baseline to Week 11 Visit and to Final Visit were compared between oral paricalcitol and placebo using an ANCOVA with baseline as the second factor on the combined Phase 3 all treated subject population (Table G).
The study was performed in 4 parts: a Screening Visit, a Pre-Treatment Phase, a Treatment Phase, and a Follow-Up Phase. At the Screening Visit, subjects reviewed and signed the informed consent form prior to the conduct of any study-specific screening procedures. A spot urine sample was used to calculate calcium/creatinine ratio. A blood sample was drawn for iPTH, blood urea nitrogen (BUN), albumin and serum creatinine levels. […] The serum creatinine, BUN, and albumin values were used to calculate the subject's estimated glomerular filtration rate (eGFR) using a formula derived from the “Modification of Diet in Renal Disease” (MDRD) study. Subjects with a calculated eGFR of 15 to 60 mL/min were eligible to undergo Pre-Treatment Phase procedures. The Pre-Treatment Phase was 1 to 4 weeks. During this phase, subjects had 2 scheduled office visits. The office visits could have occurred at any time over a 4-week period but must have been at least 1 day apart. During these visits, subjects were to meet laboratory criteria regarding serum iPTH, calcium, and phosphorus levels. If the subject was unable to meet these criteria, he or she may have been re-screened once after 4 weeks. […] Subjects who satisfied inclusion and exclusion criteria after a minimum of 1 week in the Pre-Treatment Phase were eligible to enter the Treatment Phase. During the Treatment Phase, subjects were to self-administer study drug 3 times weekly, on Monday, Wednesday and Friday, for a total of 24 weeks. The initial dose was 2 or 4 mcg (depending on baseline iPTH levels). Procedures to be performed during the Treatment Phase included vital signs, chemistry and hematology, urinary pyridinoline, urinary deoxypyridinoline, serum bone-specific alkaline phosphatase, serum osteocalcin, urinalysis, spot urine for calcium/creatinine ratio, and recording of adverse events and concurrent medications. Serum iPTH, calcium, phosphorus, and albumin were measured every 2 weeks. Dose adjustments were to be made according to these chemistry results for iPTH, calcium, and phosphorus. Doses may have been increased in 2 mcg increments every 4 weeks. Dose reductions were to occur according to a protocol-specified algorithm. However, dosing could have been adjusted any time if, in the judgment of the Investigator, a risk to subject safety existed.

[2] = Combined Phase 3 studies, safety (Examples 10-12); type: in vivo, human
Protocol: As discussed previously, Vitamin D deficiency is common in early stage CKD and is a major factor in the development of 2° HPT. However, few nephrologists prescribe calcitriol due to concerns of its calcemic, phosphatemic and calciuric effects and potential adverse effect on kidney function. In this example, a study was conducted that evaluated the safety of paricalcitol capsule in CKD stage 3-4 subjects with 2° HPT in 3 double-blind, placebo-controlled multicenter studies. A total of 220 subjects with iPTH ≧150 pg/mL, serum Ca 8-10 mg/dL and P≦5.2 mg/dL were randomized 1:1 and treated with paricalcitol capsule (N=107) or placebo (N=113) three times per week or daily for 24 weeks. Initial doses were based on iPTH levels at baseline (iPTH <500 pg/mL: 2 mcg TIW or 1 mcg QD; iPTH ≧500 pg/mL: 4 mcg TIW or 2 mcg QD). Subsequent dose adjustments (TIW: 2 mcg, QD: 1 mcg) were based on biweekly Ca, P and iPTH results, dose increases occurred every 4 weeks.
In this example, three double-blind, placebo-controlled, multicenter studies were conducted to evaluate the safety and efficacy of paricalcitol capsule in CKD stage 3-4 subjects. Major inclusion included eGFR (MDRD formula) 15-60 mL/min/1.73 m^2, iPTH ≧150 pg/mL. A total of 220 subjects across the 3 studies were randomized and received paricalcitol capsule or placebo three times weekly (TIW, N=145) or daily (QD, N=75) for 24 weeks. Mean baseline eGFR was 23.90 mL/min/1.73 m^2 in the paricalcitol group and 23.44 mL/min/1.73 m^2 in the placebo group. The initial dose was 2 mcg (TIW) or 1 mcg (QD) for baseline iPTH ≦500 pg/mL and 4 mcg (TIW) or 2 mcg (QD) for baseline iPTH >500 pg/mL. Doses were titrated based on serum Ca, P and iPTH results that were measured every 2 weeks, dose increases occurred every 4 weeks.
In this example, paricalcitol capsules were evaluated in 3 double-blind, placebo-controlled multicenter studies in CKD stage 3-4 subjects with 2° HPT; 2 of these studies were conducted with TIW dosing and 1 was done with QD dosing. Subjects with eGFR (MDRD formula) 15-60 ml/min/1.73 m^2, iPTH ≧150 pg/mL, serum Ca 8.0-10.0 mg/dL and PO4≦5.2 mg/dL were randomized 1:1 and treated with paricalcitol capsule or placebo for 24 weeks. A total of 145 subjects used TIW regimen (paricalcitol: 72; placebo: 73) and 75 subjects (paricalcitol: 35; placebo: 40) used QD regimen. After the initial doses, doses were titrated based on serum Ca, P and iPTH results that were measured every 2 weeks; dose increases occurred once every 4 weeks and decreases every 2 weeks. Dosing administrations are shown below in Table 18.

[3] = 3 Phase 3 studies, TIW or daily for 24 weeks, CKD stage 3-4
[4] = N = 106, 3 Phase 3 studies combined
[5] = subjects who completed 24 weeks of treatment

C[C@H](/C=C/[C@H](C)C(C)(C)O)[C@H]1CC[C@H]2/C(=C/C=C3C[C@@H](O)C[C@H](O)C3)CCC[C@]12C [Paricalcitol, 19-nor-1α,3β,25-trihydroxy-9,10-secoergosta-5(Z); 7(E),22(E)-triene]
Serum Bone-Specific Alkaline Phosphatase, Change from Baseline (SE) to Final [1]: −7.922 (1.3520) mcg/L | Serum Bone-Specific Alkaline Phosphatase, Change from Baseline (SE) to Week 11 [1]: −4.673 (1.2590) mcg/L | Serum Osteocalcin, Change from Baseline (SE) to Final [1]: −19.00 (4.381) ng/mL | Serum Osteocalcin, Change from Baseline (SE) to Week 11 [1]: −4.23 (4.386) ng/mL | Urinary Deoxypyridinoline, Change from Baseline (SE) to Final [1]: −0.0084 (0.00375) nmol/mg Creat | Urinary Deoxypyridinoline, Change from Baseline (SE) to Week 11 [1]: −0.0116 (0.00354) nmol/mg Creat | Urinary Pyridinoline, Change from Baseline (SE) to Final [1]: −4.06 (2.276) nmol/mmol Creat | Urinary Pyridinoline, Change from Baseline (SE) to Week 11 [1]: −5.46 (2.545) nmol/mmol Creat | subjects who experienced hypercalcemia (2 consecutive Ca >10.5 mg/dL) ([2]; 2/106, 3 Phase 3 studies combined): 2% | adverse event incidence: pharyngitis ([2]; 3 Phase 3 studies combined): 10% | treatment-emergent adverse events reporting ([2]; 3 Phase 3 studies combined): 82% | Urine Calcium, Mean Change from Baseline (SE) [2, 3]: 2.4 (3.04) mg/24 hours | Urine Calcium, Mean Final Value [2, 3]: 42.0 mg/24 hours | Urine Phosphorous, Mean Change from Baseline (SE) [2, 3]: −2.1 (39.72) mg/24 hours | Urine Phosphorous, Mean Final Value [2, 3]: 670.4 mg/24 hours | safety and tolerability ([2]; CKD stage 3-4 subjects, 3 Phase 3 studies): safe and well tolerated | Elevated Ca × P (2 consecutive Ca × P > 55 mg^2/dL^2), subjects n (%) [2, 4]: 13 (12%) | Hypercalcemia (2 consecutive Ca > 10.5 mg/dL), subjects n (%) [2, 4]: 2 (2%) | Hyperphosphatemia (2 consecutive P > 5.5 mg/dL), subjects n (%) [2, 4]: 11 (10%) | Elevated Ca × P (2 consecutive Ca × P > 55 mg^2/dL^2), subjects n (%) ([2]; QD regimen): 5 (14%) | Hypercalcemia (2 consecutive Ca > 10.5 mg/dL), subjects n (%) ([2]; QD regimen): 0 (%) | Hyperphosphatemia (2 consecutive P > 5.5 mg/dL), subjects n (%) ([2]; QD regimen): 5 (14%) | Elevated Ca × P (2 consecutive Ca × P > 55 mg^2/dL^2), subjects n (%) ([2]; TIW regimen): 8 (12%) | Hypercalcemia (2 consecutive Ca > 10.5 mg/dL), subjects n (%) ([2]; TIW regimen): 2 (3%) | Hyperphosphatemia (2 consecutive P > 5.5 mg/dL), subjects n (%) ([2]; TIW regimen): 6 (9%) | eGFR (MDRD formula), Mean Change from Baseline [2, 5]: −2.5 (0.526) mL/min/1.73 m^2 | eGFR (MDRD formula), Mean Final Value [2, 5]: 21.4 mL/min/1.73 m^2 | eGFR (MDRD formula), Mean Percent Change from Baseline (SE) [2, 5]: −10.4 (2.268)

From US20060009425A1, “Oral formulations of paricalcitol” (priority 2004, published 2006)
